According to ChEMBL document CHEMBL4800722, “Data for DCP probe BI 605906” (2021):

Legend:
[1] = molecular target: Receptor tyrosine-protein kinase erbB-4 (Homo sapiens) (UniProt Q15303); conditions: Compound concentration 1.0 uM
[2] = molecular target: Histamine H2 receptor (Homo sapiens) (UniProt P25021); conditions: Compound concentration 10.0 uM
[3] = molecular target: MAP kinase-activated protein kinase 3 (Homo sapiens) (UniProt Q16644); experiment: MAPKAP-K3 DUNDEE kinase screen (BI); conditions: Compound concentration 10.0 uM
[4] = molecular target: Serine/threonine-protein kinase Nek2 (Homo sapiens) (UniProt P51955); experiment: NEK2A DUNDEE kinase screen (BI); conditions: Compound concentration 10.0 uM
[5] = molecular target: Serine/threonine-protein kinase mTOR (Homo sapiens) (UniProt P42345)
[6] = molecular target: Vascular endothelial growth factor receptor 3 (Homo sapiens) (UniProt P35916); conditions: Compound concentration 1.0 uM
[7] = molecular target: Polyunsaturated fatty acid lipoxygenase ALOX15 (Oryctolagus cuniculus) (UniProt P12530); experiment: 15LO Eurofins SafetyScreen44 (BI); conditions: Compound concentration 10.0 uM
[8] = molecular target: Protein kinase C zeta type (Homo sapiens) (UniProt Q05513); experiment: PRKCZ Invitrogen Lab (UK) kinase screen (BI); conditions: Compound concentration 1.0 uM
[9] = molecular target: Voltage-dependent N-type calcium channel subunit alpha-1B (Rattus norvegicus) (UniProt Q02294); experiment: CA+/N/RA Eurofins SafetyScreen44 (BI); conditions: Compound concentration 10.0 uM
[10] = molecular target: Homeodomain-interacting protein kinase 4 (Homo sapiens) (UniProt Q8NE63); experiment: HIPK4 Invitrogen Lab (UK) kinase screen (BI); conditions: Compound concentration 1.0 uM
[11] = molecular target: Vascular endothelial growth factor receptor 2 (Homo sapiens) (UniProt P35968)
[12] = molecular target: Muscarinic acetylcholine receptor M4 (Homo sapiens) (UniProt P08173); conditions: Compound concentration 10.0 uM
[13] = molecular target: Sodium-dependent noradrenaline transporter (Homo sapiens) (UniProt P23975); conditions: Compound concentration 10.0 uM
[14] = GPCRScan assay: inhibition of GABA/PBR; parameters: species or system Rattus norvegicus; radioligand conc. used [nm] 0.3 – 2.0, parental cells brain tissue
[15] = molecular target: Mitogen-activated protein kinase 9 (Homo sapiens) (UniProt P45984); conditions: Compound concentration 1.0 uM
[16] = molecular target: Serine/threonine-protein kinase DCLK1 (Homo sapiens) (UniProt O15075); conditions: Compound concentration 1.0 uM
[17] = molecular target: Myotonin-protein kinase (Homo sapiens) (UniProt Q09013); conditions: Compound concentration 1.0 uM
[18] = molecular target: ALK tyrosine kinase receptor (Homo sapiens) (UniProt Q9UM73); experiment: ALK Invitrogen Lab (UK) kinase screen (BI)
[19] = molecular target: Cyclin-dependent kinase 19 (Homo sapiens) (UniProt Q9BWU1); conditions: Compound concentration 1.0 uM
[20] = molecular target: Glycogen synthase kinase-3 beta (Homo sapiens) (UniProt P49841)
[21] = molecular target: Leucine-rich repeat serine/threonine-protein kinase 2 (Homo sapiens) (UniProt Q5S007); experiment: LRRK2_FL Invitrogen Lab (UK) kinase screen (BI); conditions: Compound concentration 1.0 uM
[22] = molecular target: Tyrosine-protein kinase Blk (Homo sapiens) (UniProt P51451); experiment: BLK Invitrogen Lab (UK) kinase screen (BI); conditions: Compound concentration 1.0 uM
[23] = molecular target: Cannabinoid receptor 2 (Homo sapiens) (UniProt P34972); conditions: Compound concentration 10.0 uM
[24] = molecular target: Type-1 angiotensin II receptor (Homo sapiens) (UniProt P30556); experiment: AT1 Eurofins SafetyScreen44 (BI)
[25] = molecular target: Tyrosine-protein kinase Fes/Fps (Homo sapiens) (UniProt P07332); conditions: Compound concentration 1.0 uM
[26] = molecular target: Casein kinase I isoform delta (Homo sapiens) (UniProt P48730); conditions: Compound concentration 1.0 uM
[27] = molecular target: Dual specificity protein kinase CLK2 (Homo sapiens) (UniProt P49760); conditions: Compound concentration 1.0 uM
[28] = molecular target: 5'-AMP-activated protein kinase catalytic subunit alpha-2/beta-1/gamma-2 (Homo sapiens) (UniProt P54646+Q9UGJ0+Q9Y478); experiment: AMPK (A2/B1/G2) Invitrogen Lab (UK) kinase screen (BI); format: protein-complex assay; conditions: Compound concentration 1.0 uM
[29] = molecular target: Serine/threonine-protein kinase 32C (Homo sapiens) (UniProt Q86UX6); conditions: Compound concentration 1.0 uM
[30] = molecular target: Proto-oncogene tyrosine-protein kinase receptor Ret (Homo sapiens) (UniProt P07949); experiment: RET Invitrogen Lab (UK) kinase screen (BI)
[31] = molecular target: MAP/microtubule affinity-regulating kinase 4 (Homo sapiens) (UniProt Q96L34); conditions: Compound concentration 1.0 uM
[32] = molecular target: Cyclin-dependent kinase 7 (Homo sapiens) (UniProt P50613); conditions: Compound concentration 1.0 uM
[33] = molecular target: Vascular endothelial growth factor receptor 1 (Homo sapiens) (UniProt P17948); conditions: Compound concentration 1.0 uM
[34] = molecular target: Ephrin type-A receptor 6 (Homo sapiens) (UniProt Q9UF33); conditions: Compound concentration 1.0 uM
[35] = molecular target: Dual specificity tyrosine-phosphorylation-regulated kinase 4 (Homo sapiens) (UniProt Q9NR20); conditions: Compound concentration 1.0 uM
[36] = molecular target: LIM domain kinase 2 (Homo sapiens) (UniProt P53671); conditions: Compound concentration 1.0 uM
[37] = molecular target: ATP-sensitive inward rectifier potassium channel 1 isoform X1 (Mesocricetus auratus) (UniProt A0A1U8CU73); experiment: K+/KATP/HA Eurofins SafetyScreen44 (BI); conditions: Cricetinae; Compound concentration 10.0 uM
[38] = molecular target: Serine/threonine-protein kinase WNK3 (Homo sapiens) (UniProt Q9BYP7); experiment: WNK3 Invitrogen Lab (UK) kinase screen (BI); conditions: Compound concentration 1.0 uM
[39] = molecular target: Protein kinase C beta type (Homo sapiens) (UniProt P05771)
[40] = molecular target: Casein kinase I isoform alpha (Homo sapiens) (UniProt P48729); conditions: Compound concentration 1.0 uM
[41] = molecular target: Ribosomal protein S6 kinase alpha-6 (Homo sapiens) (UniProt Q9UK32); conditions: Compound concentration 1.0 uM
[42] = molecular target: Serine/threonine-protein kinase NLK (Homo sapiens) (UniProt Q9UBE8); conditions: Compound concentration 1.0 uM
[43] = molecular target: Serine/threonine-protein kinase Nek9 (Homo sapiens) (UniProt Q8TD19); conditions: Compound concentration 1.0 uM

Chain of Type-1 angiotensin II receptor (Homo sapiens) (P30556 whole entry): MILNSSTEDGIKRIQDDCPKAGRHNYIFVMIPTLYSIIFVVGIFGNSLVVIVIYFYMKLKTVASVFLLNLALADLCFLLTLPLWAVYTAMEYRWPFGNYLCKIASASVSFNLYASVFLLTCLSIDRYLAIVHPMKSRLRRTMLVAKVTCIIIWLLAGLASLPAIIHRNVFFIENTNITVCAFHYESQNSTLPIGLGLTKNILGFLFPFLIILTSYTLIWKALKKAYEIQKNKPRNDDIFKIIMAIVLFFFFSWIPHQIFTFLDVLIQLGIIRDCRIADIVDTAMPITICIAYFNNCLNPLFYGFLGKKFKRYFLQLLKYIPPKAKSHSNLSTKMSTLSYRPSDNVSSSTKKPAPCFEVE
Chain of ALK tyrosine kinase receptor (Homo sapiens) (Q9UM73 19-1620 limits assumed): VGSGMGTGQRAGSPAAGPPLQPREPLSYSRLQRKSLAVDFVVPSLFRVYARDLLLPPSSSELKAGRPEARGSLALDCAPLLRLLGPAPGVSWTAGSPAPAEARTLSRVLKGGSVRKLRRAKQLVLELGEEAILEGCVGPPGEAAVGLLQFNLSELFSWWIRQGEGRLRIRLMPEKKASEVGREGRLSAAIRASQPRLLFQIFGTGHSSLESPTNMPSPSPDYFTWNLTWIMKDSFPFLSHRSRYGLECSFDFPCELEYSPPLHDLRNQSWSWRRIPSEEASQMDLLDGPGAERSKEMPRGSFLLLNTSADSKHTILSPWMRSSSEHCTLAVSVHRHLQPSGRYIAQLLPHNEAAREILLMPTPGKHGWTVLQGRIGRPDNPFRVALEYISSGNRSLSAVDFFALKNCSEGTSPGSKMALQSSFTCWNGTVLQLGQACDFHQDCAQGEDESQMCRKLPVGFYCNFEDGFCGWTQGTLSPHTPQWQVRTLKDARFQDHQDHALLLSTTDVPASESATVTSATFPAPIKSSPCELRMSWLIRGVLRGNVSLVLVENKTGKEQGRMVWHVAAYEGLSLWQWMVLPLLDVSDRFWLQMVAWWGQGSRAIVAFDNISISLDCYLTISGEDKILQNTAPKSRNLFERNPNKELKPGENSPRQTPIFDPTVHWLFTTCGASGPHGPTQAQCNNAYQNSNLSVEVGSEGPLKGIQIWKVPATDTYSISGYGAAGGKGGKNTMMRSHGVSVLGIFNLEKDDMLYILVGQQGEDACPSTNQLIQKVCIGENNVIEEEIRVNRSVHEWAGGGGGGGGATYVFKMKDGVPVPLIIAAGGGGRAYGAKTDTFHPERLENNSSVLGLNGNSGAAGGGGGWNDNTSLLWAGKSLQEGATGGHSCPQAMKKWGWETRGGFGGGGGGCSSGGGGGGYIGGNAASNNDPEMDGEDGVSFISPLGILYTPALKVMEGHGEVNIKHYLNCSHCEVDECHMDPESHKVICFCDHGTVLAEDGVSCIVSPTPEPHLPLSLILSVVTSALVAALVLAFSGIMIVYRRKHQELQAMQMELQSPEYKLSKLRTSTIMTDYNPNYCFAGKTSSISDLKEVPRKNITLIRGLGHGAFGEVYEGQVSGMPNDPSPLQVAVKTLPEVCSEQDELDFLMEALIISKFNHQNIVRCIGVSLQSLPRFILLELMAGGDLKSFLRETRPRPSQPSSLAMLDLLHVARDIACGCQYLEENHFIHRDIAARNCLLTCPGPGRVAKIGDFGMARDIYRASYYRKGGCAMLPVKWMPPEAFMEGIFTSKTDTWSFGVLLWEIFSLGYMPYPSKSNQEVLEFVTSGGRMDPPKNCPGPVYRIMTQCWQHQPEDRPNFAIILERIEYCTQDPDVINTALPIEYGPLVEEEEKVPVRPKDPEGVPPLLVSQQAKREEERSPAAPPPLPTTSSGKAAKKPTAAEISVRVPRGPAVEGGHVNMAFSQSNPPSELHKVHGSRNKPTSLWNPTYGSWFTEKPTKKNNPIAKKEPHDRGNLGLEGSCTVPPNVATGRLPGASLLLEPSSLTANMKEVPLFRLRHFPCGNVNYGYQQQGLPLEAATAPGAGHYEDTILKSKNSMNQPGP
Chain of Proto-oncogene tyrosine-protein kinase receptor Ret (Homo sapiens) (P07949 whole entry): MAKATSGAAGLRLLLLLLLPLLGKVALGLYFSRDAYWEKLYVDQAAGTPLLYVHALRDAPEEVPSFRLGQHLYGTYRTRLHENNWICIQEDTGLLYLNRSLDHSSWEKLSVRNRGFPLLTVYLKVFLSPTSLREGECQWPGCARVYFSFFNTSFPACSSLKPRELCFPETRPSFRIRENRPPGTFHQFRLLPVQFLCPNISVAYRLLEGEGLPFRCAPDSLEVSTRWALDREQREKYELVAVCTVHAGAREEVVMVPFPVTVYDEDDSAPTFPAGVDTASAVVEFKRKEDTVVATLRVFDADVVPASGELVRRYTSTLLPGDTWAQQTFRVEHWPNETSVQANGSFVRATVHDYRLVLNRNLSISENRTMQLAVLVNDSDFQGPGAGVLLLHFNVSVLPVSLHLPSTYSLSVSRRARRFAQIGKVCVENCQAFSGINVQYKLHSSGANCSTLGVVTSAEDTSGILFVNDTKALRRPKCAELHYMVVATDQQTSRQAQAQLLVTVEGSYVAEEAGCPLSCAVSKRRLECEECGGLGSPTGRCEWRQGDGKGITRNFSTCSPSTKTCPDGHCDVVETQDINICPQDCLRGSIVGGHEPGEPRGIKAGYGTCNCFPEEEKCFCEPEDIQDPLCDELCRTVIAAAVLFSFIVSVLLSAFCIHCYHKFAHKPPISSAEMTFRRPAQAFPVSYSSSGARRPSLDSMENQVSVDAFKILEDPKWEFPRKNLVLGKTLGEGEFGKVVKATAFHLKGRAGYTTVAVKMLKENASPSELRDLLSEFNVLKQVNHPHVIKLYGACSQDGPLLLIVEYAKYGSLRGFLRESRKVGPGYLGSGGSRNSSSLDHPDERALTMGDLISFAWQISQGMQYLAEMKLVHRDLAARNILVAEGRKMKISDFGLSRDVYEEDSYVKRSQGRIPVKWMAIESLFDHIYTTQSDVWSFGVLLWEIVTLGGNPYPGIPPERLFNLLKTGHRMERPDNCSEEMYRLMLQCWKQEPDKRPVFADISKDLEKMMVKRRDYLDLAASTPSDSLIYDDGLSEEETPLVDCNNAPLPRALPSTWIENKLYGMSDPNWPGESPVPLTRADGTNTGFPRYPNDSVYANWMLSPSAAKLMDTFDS
Chain of Protein kinase C beta type (Homo sapiens) (P05771 2-671 limits assumed): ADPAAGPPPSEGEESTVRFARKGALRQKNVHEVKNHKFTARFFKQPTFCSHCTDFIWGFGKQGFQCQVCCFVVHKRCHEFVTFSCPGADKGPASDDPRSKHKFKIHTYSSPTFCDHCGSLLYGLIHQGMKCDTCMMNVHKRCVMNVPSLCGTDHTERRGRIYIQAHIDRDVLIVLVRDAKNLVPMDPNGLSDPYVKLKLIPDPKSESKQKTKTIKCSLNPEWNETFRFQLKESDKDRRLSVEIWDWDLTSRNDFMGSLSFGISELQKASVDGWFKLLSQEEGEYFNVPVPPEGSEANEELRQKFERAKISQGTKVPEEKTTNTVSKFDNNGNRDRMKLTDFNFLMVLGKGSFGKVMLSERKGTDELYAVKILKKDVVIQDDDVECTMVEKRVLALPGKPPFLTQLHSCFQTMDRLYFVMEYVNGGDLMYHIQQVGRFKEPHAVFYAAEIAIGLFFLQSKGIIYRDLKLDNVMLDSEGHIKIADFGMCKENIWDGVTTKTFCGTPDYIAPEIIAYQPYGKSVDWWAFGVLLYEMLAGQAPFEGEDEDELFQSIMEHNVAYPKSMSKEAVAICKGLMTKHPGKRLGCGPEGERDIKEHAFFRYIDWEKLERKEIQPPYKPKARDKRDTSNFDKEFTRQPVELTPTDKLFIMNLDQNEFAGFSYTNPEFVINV
Chain of Glycogen synthase kinase-3 beta (Homo sapiens) (P49841 whole entry, looked up): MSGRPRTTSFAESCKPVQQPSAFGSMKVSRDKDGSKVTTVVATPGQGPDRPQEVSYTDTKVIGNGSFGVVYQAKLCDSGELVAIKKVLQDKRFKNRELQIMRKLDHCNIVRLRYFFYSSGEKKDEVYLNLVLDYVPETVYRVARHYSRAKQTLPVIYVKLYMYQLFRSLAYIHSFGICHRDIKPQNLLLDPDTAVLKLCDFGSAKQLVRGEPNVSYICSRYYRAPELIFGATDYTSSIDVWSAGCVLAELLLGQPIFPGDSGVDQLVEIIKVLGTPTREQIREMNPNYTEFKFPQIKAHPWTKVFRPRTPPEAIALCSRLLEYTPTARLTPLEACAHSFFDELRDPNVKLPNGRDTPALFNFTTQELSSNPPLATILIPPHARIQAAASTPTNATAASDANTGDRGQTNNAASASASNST
Chain of Cannabinoid receptor 2 (Homo sapiens) (P34972 whole entry): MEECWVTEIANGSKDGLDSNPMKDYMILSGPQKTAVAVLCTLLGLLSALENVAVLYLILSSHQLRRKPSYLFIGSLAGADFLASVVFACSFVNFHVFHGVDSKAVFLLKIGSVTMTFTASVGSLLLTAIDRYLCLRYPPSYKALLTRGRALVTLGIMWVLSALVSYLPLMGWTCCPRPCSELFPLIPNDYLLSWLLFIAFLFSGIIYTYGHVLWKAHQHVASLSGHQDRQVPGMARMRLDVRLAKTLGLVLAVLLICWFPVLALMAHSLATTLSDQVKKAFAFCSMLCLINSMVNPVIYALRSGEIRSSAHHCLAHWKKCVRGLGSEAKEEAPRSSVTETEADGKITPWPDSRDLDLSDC
Chain of Casein kinase I isoform alpha (Homo sapiens) (P48729 2-337 limits assumed): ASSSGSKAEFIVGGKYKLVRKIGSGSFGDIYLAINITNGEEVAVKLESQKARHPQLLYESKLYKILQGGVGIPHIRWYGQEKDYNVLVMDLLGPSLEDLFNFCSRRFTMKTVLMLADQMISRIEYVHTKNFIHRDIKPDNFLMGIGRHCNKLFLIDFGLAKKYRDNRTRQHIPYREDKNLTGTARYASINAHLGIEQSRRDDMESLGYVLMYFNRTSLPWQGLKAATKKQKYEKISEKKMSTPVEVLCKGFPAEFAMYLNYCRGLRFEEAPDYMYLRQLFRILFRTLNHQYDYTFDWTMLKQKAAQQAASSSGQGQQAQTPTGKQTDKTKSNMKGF

With `CCC(F)(F)c1cc(N2CCC(S(C)(=O)=O)CC2)nc2sc(C(N)=O)c(N)c12` [BI-605906] the residual activity [1] was 94%, the residual activity [2] was 94% and the residual activity [3] was 90.2%. The residual activity [4] was 74.8%, the residual activity ([5]; Compound concentration 1.0 uM) was 99% and the residual activity ([5]; Compound concentration 10.0 uM) was 98%. The residual activity [6] was 97%, the residual activity [7] was 79% and the residual activity [8] was 112%. It also gave a residual activity [9] of 86%, a residual activity [10] of 77% and a residual activity ([11]; Compound concentration 1.0 uM) of 98%. For the same compound, the residual activity ([11]; Compound concentration 10.0 uM) was 79%, the inhibition [12] was 13.3% and the inhibition [13] was 8.84%. For the same compound, the Ki [14] was 2.62 µM, the pKi [14] was 5.59 and the residual activity [15] was 98%. The residual activity [16] was 99%, the residual activity [17] was 95% and the residual activity ([18]; Compound concentration 1.0 uM) was 80%. For the same compound, the residual activity ([18]; Compound concentration 10.0 uM) was 74%, the residual activity [19] was 87% and the residual activity ([20]; Compound concentration 1.0 uM) was 93%. For the same compound, the residual activity ([20]; Compound concentration 10.0 uM) was 87%, the residual activity [21] was 62% and the residual activity [22] was 88%. The residual activity [23] was 91%, the residual activity ([24]; Compound concentration 10.0 uM) was 104% and the residual activity ([24]; Compound concentration 100.0 uM) was 72%. It also gave a residual activity [25] of 91%, a residual activity [26] of 100% and a residual activity [27] of 91%. The residual activity [28] was 88%, the residual activity [29] was 99% and the residual activity ([30]; Compound concentration 1.0 uM) was 60%. The residual activity ([30]; Compound concentration 10.0 uM) was 32%, the residual activity [31] was 100% and the residual activity [32] was 99%. It also gave a residual activity [33] of 100%, a residual activity [34] of 91% and a residual activity [35] of 97%. It also gave a residual activity [36] of 95%, a residual activity [37] of 110% and a residual activity [38] of 102%. It also gave a residual activity ([39]; Compound concentration 1.0 uM) of 89%, a residual activity ([39]; Compound concentration 10.0 uM) of 102% and a residual activity [40] of 98%. For the same compound, the residual activity [41] was 98%, the residual activity [42] was 93% and the residual activity [43] was 99%.
